Test results as given in patent US5272143A, “6-oxoazepinoindole compounds, and pharmaceutical compositions containing them” (Kali-Chemie Pharma GmbH, priority 1991, dated 1993).
Counter-ions that a name gives are not always drawn.

Tests used:
Mouse = test system: Mouse; parameters: species or system Male mice; conditions: in vivo, po, 4320 min
Experimental: 1. Determination of the minimum toxic dose.
Male mice of 20-25 g weight are administered maximum doses of 300 mg/kg of the test substance p.o. The animals were carefully observed for 3 hours for symptoms of toxicity. Over a period of 72 hours after administration, all symptoms and cases of death are additionally recorded. Concomitant symptoms are likewise observed and recorded. If death or strong toxic symptoms are observed, further mice are administered increasingly lower doses until toxic symptoms no longer occur. The lowest dose which causes death or strong toxic symptoms is given in the following Table A as the minimum toxic dose. The example numbers given in Table A relate to the subsequent preparation examples.

5-HT1-like receptors = test: Serotonin-agonistic contractions in segments of the isolated basilar artery of the pig (in vitro antimigraine activity); type: cell-based; conditions: for Maximum Contraction Produced by Test Substance Relative to Maximum Contraction Produced by Serotonin = 1 / relative potency calculated as pD2 of the test substance relative to the pD2 of serotonin determined on the same piece of artery / pD2 = neg. log of Concentration Which Produces 50% of Maximum Contraction: porcine basilar artery, in vitro; for pD2 = neg. log of Concentration Which Produces 50% of Maximum Contraction: concentrations in mol/l
Source text: 3. Investigation of Properties Indicating Antimigraine Activity of Test Substance in vitro. Migraine pains are associated with excessive dilation of the cranial vascular system. […] This property of the test substances can be used as a basis for predicting anti-migraine activity. The serotoninagonistic activity of the substances on 5-HT1 -like receptors can be determined in vitro in isolated organ strips from the basilar artery of a pig. […] Such a contraction is also produced by the test substances and is a good index of the antimigraine activity of the substances. The tests are carried out according to the method described by van Charldorp et al. (Naunyn-Schmiedeb. Arch. Pharmacol. supp. to volume 341, R89, 1990 and Eur. J. Pharmacol. 183, 1106-1107, 1990). Experimental description of the in vitro determination of the effect inducing serotonin-agonistic contractions in segments of the isolated basilar artery of the pig. For the experiment, helical segments of the basilar artery of pigs were used which were isolated from pig brains supplied by a slaughterhouse. Each strip was fixed in an organ bath consisting of 10 ml of a modified Tyrode solution such that the tissue was under a tension of 10 mN. […] The solution was modified by adding 10^-8 mol/l of indomethacin, 10^-7 mol/l of atropine and 10^-7 mol/l of propanolol and adjusted to pH=7.4. The bath was aerated with a mixture of 95% O2 and 5% CO2. After an equilibration phase of 1 hour a contraction of the tissue was produced twice, in each case by addition of serotonin at a concentration of 10^-5 mol/l and the preparation was subsequently washed out. The contraction effect was then measured with increasing serotonin concentration and a cumulative concentration effect curve for serotonin was drawn up. A cumulative concentration effect curve was drawn up for the test substance on the same preparation (after washing out again). In the following Table B, the maximum contraction caused by the test substances in relationship to the maximum contraction produced by serotonin, and the negative logarithm of that concentration of the test substance which produces 50% of the maximum contraction which can be produced by this test substance (=pD2), and the relative potency calculated as pD2 of the test substance relative to the pD2 of serotonin determined on the same piece of artery are given.

stomach motility = test: Determination of effect on stomach motility in anaesthetised rats; type: in vivo, rats of the SIV 50 strain; conditions: rat; for change in vivo at 10 µmol/kg / change in vivo at 100 µmol/kg: ip, read-out: Maximum Amplitude Increase (increase in % of control amplitude)
Experimental: 2. Determination of effect on stomach motility in anaesthetised rats.
For the tests, groups of 5-6 fasting rats of the SIV 50 strain having a body weight of 220-290 g were used in each test which had been anaesthetised with a ketamine/xylazine mixture. The animals received an initial dose of 1 ml/kg of a solution of 50 mg/ml of ketamine and 10 mg/ml of xylazine administered i.p., and the anaesthetic level was maintained by a continuous intraperitoneal infusion of the same solution at an infusion rate of 1 ml/kg/h. The animals were tracheotomised and laparotomised. After applying a pylorus ligature, a stomach tube was inserted into the stomach and connected at the other end by means of a three-way tap to a calibrated pressure transducer (Statham Element P 23 ID). A corresponding tube was inserted rectally 8-9 cm into the colon and likewise connected in the same manner to a calibrated pressure transducer of the same type. The stomachs of the animals were then filled with 2 ml of water via the tube. After a stabilisation phase of 40 min, the pressure variations in the stomach and colon were measured over a test period of 2 hours and 20 minutes, and the amplitudes produced by the phasic gastric motility were recorded by means of a Watanabe multirecorder (MC 6621). The geometric mean values of the amplitudes during the first 20 min were determined for the individual animals and used as control amplitude values. After the first 20 min, the test substances were administered i.p. The maximum increase in amplitude (=mean value of the 20 minute period in which the highest increase in amplitude occurs) caused by the test substances was determined in % increase of the control amplitude values determined before administration of the test substances, and the mean value for the animal group is given in the following Table A. In addition, the maximum increase in the mean gastric tone caused by the test substances during the test period compared with the mean gastric tone existing before administration of the test substances was recorded. This increase in gastric tone is given in Table A in cm of H2 O (mean value of the animal group). In the colon, the test substances cause amplitude damping.

Row | action on 5-HT1-like receptors in the basilar artery (contraction) (5-HT1-like receptors; isolated basilar artery) | Structure (SMILES) | Minimum Toxic Dose (Mouse) [mg/kg] | Maximum Contraction Produced by Test Substance Relative to Maximum Contraction Produced by Serotonin = 1 (5-HT1-like receptors) | relative potency calculated as pD2 of the test substance relative to the pD2 of serotonin determined on the same piece of artery (5-HT1-like receptors) | pD2 = neg. log of Concentration Which Produces 50% of Maximum Contraction (5-HT1-like receptors) | change in vivo at 10 µmol/kg (stomach motility; 10 μmole/kg i.p.) [%] | Gastric Tone Increase (stomach motility; 10 μmole/kg i.p.) [cm H2O] | change in vivo at 100 µmol/kg (stomach motility; 100 μmole/kg i.p.) [%] | Gastric Tone Increase (stomach motility; 100 μmole/kg i.p.) [cm H2O]
1 |  | NCC1CNC(=O)c2cccc3[nH]cc1c23 (racemic) [Example 1, 3-Aminomethyl-3,4,5,6-tetrahydro-6-oxo-1H-azepino[5,4,3-cd]indole] | > 300 | 0.8 | 0.132 | 6.5 | 449 | 7.4 |  | 
2 |  | CNCC1CNC(=O)c2cccc3[nH]cc1c23 (racemic) [Example 4, 3-Methylaminomethyl-3,4,5,6-tetrahydro-6-oxo-1H-azepino[5,4,3-cd]indole] | > 300 | 0.6 | 0.208 | 6.8 |  |  | 532 | 9.0
3 |  | NC[C@@H]1CNC(=O)c2cccc3[nH]cc1c23 [Example 1a, 3R(+)-3-Aminomethyl-3,4,5,6-tetrahydro-6-oxo-1H-azepino[5,4,3-cd]indole] |  | 1.0 | 0.172 | 6.7 |  |  |  | 
4 |  | CNC[C@@H]1CNC(=O)c2cccc3[nH]cc1c23 [Example 4a, 3R(+)-3-methylaminomethyl-3,4,5,6-tetrahydro-6-oxo-1H-azepino[5,4,3-cd]indole hydrochloride] |  | 0.6 | 0.354 | 7.0 |  |  |  | 
5 |  | Cn1cc2c3c(cccc31)C(=O)NCC2CN (stereo not shown) [Example 9, 1-methyl-3-aminomethyl-3,4,5,6-tetrahydro-6-oxo-1H-azepino[5,4,3-cd]indole] | > 300 | 0.5 | 0.124 | 6.4 | 334 | 5.5 |  | 
6 |  | COCN1CC(CN)c2c[nH]c3cccc(c23)C1=O (stereo not shown) [Example 12, 3-aminomethyl-5-methoxymethyl-3,4,5,6-tetrahydro-6-oxo-1H-azepino[5,4,3-cd]indole] |  | 0.7 | 0.050 | 6.0 |  |  |  | 
7 |  | COc1ccc(CCn2cc3c4c(cccc42)C(=O)NCC3CN)cc1OC (stereo not shown) [Example 36] | > 300 |  |  |  |  |  | 351 | 11.5
8 |  | O=C1NCC(CN2CCCC2)c2c[nH]c3cccc1c23 (stereo not shown) [Example 37] | > 300 |  |  |  |  |  | 950 | 4.0
9 |  | CCCNCC1CNC(=O)c2cccc3[nH]cc1c23 (stereo not shown) [Example 38] | > 300 |  |  |  |  |  | 559 | 12.4
10 |  | CN(C)CC1CNC(=O)c2cccc3[nH]cc1c23 (stereo not shown) [Example 39] | > 300 |  |  |  |  |  | 569 | 1.8
11 |  | CCCN(CCC)CC1CNC(=O)c2cccc3[nH]cc1c23 (stereo not shown) [Example 40] | > 300 |  |  |  |  |  | 997 | 6.5
12 |  | CCCCNCC1CNC(=O)c2cccc3[nH]cc1c23 (stereo not shown) [Example 41] | > 300 |  |  |  |  |  | 234 | 2.7
13 |  | O=C1NC(CNC2CC2)Cc2c[nH]c3cccc1c23 (stereo not shown) [Example 45] | > 300 |  |  |  |  |  | 580 | 3.5
14 | concentration -dependent contraction | NCCc1c[nH]c2ccc(O)cc12 [Serotonin, reference compound] |  |  |  |  |  |  |  | 
